Drawing on US20100249402A1, “NOVEL BENZAMIDINE DERIVATIVES, PROCESS FOR THE PREPARATION THEREOF AND PHARMACEUTICAL COMPOSITION FOR PREVENTING OR TREATING OSTEPOROSIS COMPRISING THE SAME” (DONG WHA PHARMACEUTICAL CO. LTD., priority 2007, published 2010), this text covers inhibition and Cell survival rate for 15 compounds.

Read-outs that look alike come from different tables or passages of the source.

Series [1] deals with osteoclast differentiation. The series is described as follows: Inhibitory effects on osteoclast differentiation (bone marrow cell/osteoblast co-culture, TRAP staining). Particulars: Mus musculus, Osteoclast, 168 h, read-out: Inhibition of osteoclast differentiation (%). Format: cell-based, mice. On the procedure: The effect of the benzamidine derivative of the present invention on osteoclast formation and differentiation process was evaluated via co-culture with an osteoblast.
Tibia was aseptically ectomized from 6 to 8-week-old male ddY mice to harvest bone marrow cells by using a syringe (21G, Korea Green Cross). The bone marrow cells were suspended in 5 mL of an α-MEM medium (Gibco BRL Co., supplemented with sodium bicarbonate (2.0 g/L), streptomycin (100 mg/L) and penicillin ([…]), filtered and then sterilized). The harvested cells were centrifuged at 600×g for 5 minutes to collect the whole quantity. To remove the red blood cells in the bone marrow cells, 3 mL of Tris HCl (0.83% NH4Cl, pH 7.5) was added and well mixed. After centrifugation, the numbers of the eukaryotic cells in the harvested bone marrow cells were counted, and then immediately used for a co-culture system.
The progenitor bone and the parietal bone were aseptically ectomized from 1 to 2-day-old neonatal ICR mice, washed with a phosphate butter solution (PBS), and treated with a mixed enzyme solution (0.2% collagenase and 0.1% dispase) six to seven times (10, 10, 10, 20, 20 and 20 min), and then 3 to 6 groups of the cells, in which a large volume of cells having osteoblastic characteristics were contained, were intensively collected, and washed with medium (serum-free α-MEM). The washed cells were cultured in the α-MEM medium containing 10% FBS for 2 to 3 days. After sub-culturing, the collected cells were used for this experiment, and diluted to a concentration of 1×10^6 cells/mL for storage at −70° C.
The benzamidine derivative of the present invention was dissolved in a sterile distilled water or ethanol to be diluted to a desired concentration. The final volume of the sample added to the cell culture medium was set at a ratio of 1:1000.
The bone marrow cells prepared in the above 1-1 and the osteoblast were co-cultured. Both the bone marrow cells (25,000 cells/cm^2) and the osteoblast (10,000 cells/cm^2) were plated in a 96-well plate using α-MEM medium containing FBS, and then cultured with the samples to be tested for 7 days. Differentiation factors, such as dexamethasone (10^−7 M) and vitamin D (10^−8 M), were also co-added to the medium from the first day of cultivation. The medium was changed with a fresh media containing a mixture of the samples and the differentiation factors every 2 to 3 days.
TRAP was used as a marker to measure the matured osteoclast in consideration of its characteristics showing a positive reaction to a TRAP staining solution.
The TRAP staining solution was prepared in such the manner that 5 mg of naphthol AS-MS phosphate (sigma N-4875) as a substrate and 25 mg of a coloring agent (Fast Red Violet LB salt) were dissolved in N,N-dimethylformamide (about 0.5 mL). 50 ml of a 0.1 N […] buffer solution containing 50 mM tartaric acid (pH 5.0) was added thereto, and the mixture was stored in a refrigerator prior to use as a staining solution.
After culturing the cells for 7 days, the medium was removed from the wells, the cells were once washed with PBS, and then fixed with PBS containing 10% formalin for 2 to 5 min. The cells were fixed again in a mixed solution of ethanol and acetone (1/1) for about 1 min, and dried off. The cells were further treated by the TRAP staining solution for 15 minutes, and washed with water and dried off. The osteoclasts with 3 or more nuclei showing a TRAP-positive reaction were counted under a microscopic examination. Each of tests was confirmed at least three times. The inhibitory effect on osteoclast differentiation of each experimental group, relative to negative controls, was expressed as a percentage (%).

A further series concerns MC3T3-E1. The series is described as follows: Cytotoxicity test (MTT), MC3T3-E1. Format: cell-based. Particulars: 10^−6 M, cultured for 72 hrs, in comparison with the control group. On the procedure:
(§1) The cytotoxic effect of the benzamidine derivative of the present invention was evaluated by carrying out the experiment described below.
(§2) The test substance was diluted in an appropriate solvent at a concentration of 10^−2 M. This substance was diluted in an appropriate culture medium for the cells used in the cytotoxicity test to a concentration of 10^−6M, and loaded into a 96-well plate in 100 μl per well. The cell lines to be used in the cytotoxicity test were plated on a 96-well plate in a dose of 1.0×10^4 cell/100 μl per well, and cultured for 72 hrs. 25 μl of MTT[3-(4,5-dimethyl-2-thiazolyl)-2,5-diphenyl-2H-tetrazolium bromide] dissolved in PBS (2 mg/mL) were added before 4 hrs of the end of culture. After completion of the reaction, the plates were centrifuged, the medium was discarded and 100 μl of DMSO was added to dissolve formazan. Finally, the absorbance of the developed plates was measured at 540 nm. The survival rates of the cells were expressed as % concentration values in comparison with the control group.

A further series concerns calvaria. The series is described as follows: Cytotoxicity test (MTT), calvaria. Format: cell-based. Particulars: 10^−6 M, cultured for 72 hrs, in comparison with the control group. On the procedure: as §1, §2
A further series concerns HOS. The series is described as follows: Cytotoxicity test (MTT), HOS. Format: cell-based. Particulars: 10^−6 M, cultured for 72 hrs, in comparison with the control group. On the procedure: as §1, §2
The mark [2] stands for this setting: 1 μm, 7 days co-culture, TRAP-positive osteoclasts with 3 or more nuclei, relative to negative controls.

In the case of `CN(Cc1ccccc1)c1nc(-c2ccc(OCCCCCOc3ccc(C(=N)NO)cc3)cc2)c(CN2CCOCC2)s1` [Example 27, N-hydroxy-4-(5-{4-[2-(benzyl-methyl-amino)-5-morpholin-4-ylmethyl-thiazol-4-yl]-phenoxy}-pentyloxy)-benzamidine], the inhibition at 1 µM in series [1] (setting [2]) was 77%. Also, the figures for the Cell survival rate with MC3T3-E1, with calvaria and in the series on HOS were 102%, 106% and 104%, respectively.

Turning to `N=C(NO)c1ccc(OCCCCCOc2ccc(-c3nc(N4CCOCC4)sc3N3CCCC3)cc2)cc1` [Example 7, N-hydroxy-4-{5-[4-(2-morpholin-4-yl-5-pyrrolidin-1-yl-thiazol-4-yl)-phenoxy]-pentyloxy}-benzamidine], the inhibition at 1 µM in series [1] is 58%. Further, the Cell survival rate in the series on MC3T3-E1 amounted to 99%; with calvaria, 101%; in the series on HOS, 92%.

For the compound `Cc1nc(-c2ccc(OCCCCCOc3ccc(C(=N)NO)cc3)cc2)c(CNCCN2CCOCC2)s1` [Example 17, N-hydroxy-4-[5-(4-{2-methyl-5-[(2-morpholin-4-yl-ethylamino)-methyl]-thiazol-4-yl}-phenoxy)-pentyloxy]-benzamidine], the inhibition at 1 µM in series [1] was 100%. Further, the Cell survival rate with MC3T3-E1 turned out to be 103%; in the series with calvaria, 93%; with HOS, 99%.

Take `N=C(NO)c1ccc(OCCCCCOc2ccc(-c3nc(N4CCOCC4)sc3N3CCSCC3)cc2)cc1` [Example 6, N-hydroxy-4-{5-[4-(2-morpholin-4-yl-5-thiomorpholin-4-yl-thiazol-4-yl)-phenoxy]-pentyloxy}-benzamidine]: in series [1], the inhibition at 1 µM came out at 92%. For the same compound, the Cell survival rate amounted to 90% with MC3T3-E1, 106% in the series on calvaria and 92% with HOS.

Turning to `CN(CCN1CCOCC1)c1nc(-c2ccc(OCCCCCOc3ccc(C(=N)NO)cc3)cc2)c(CN2CCSCC2)s1` [Example 29, N-hydroxy-4-[5-(4-{2-[methyl-(2-morpholin-4-yl-ethyl)-amino]-5-thiomorpholin-4-ylmethyl-thiazol-4-yl}-phenoxy)-pentyloxy]-benzamidine], the inhibition at 1 µM in series [1] came out at 97%. For the same compound, the values for the Cell survival rate with MC3T3-E1, in the series on calvaria and in the series with HOS were 109%, 99% and 109%, respectively.

For the compound `N=C(NO)c1ccc(OCCCCCOc2ccc(-c3nc(N4CCCCC4)sc3N3CCOCC3)cc2)cc1` [Example 52, N-hydroxy-4-{5-[4-(5-morpholin-4-yl-2-piperidin-1-yl-thiazol-4-yl)-phenoxy]-pentyloxy}-benzamidine], the inhibition at 1 µM in series [1] (setting [2]) was determined as 91%. Also, the values for the Cell survival rate in the series on MC3T3-E1, with calvaria and in the series on HOS were 94%, 97% and 97%, respectively.

In the case of `COCCN(CCOC)Cc1sc(N(C)CCN2CCOCC2)nc1-c1ccc(OCCCCCOc2ccc(C(=N)NO)cc2)cc1` [Example 30, N-hydroxy-4-[5-(4-{5-{[bis-(2-methoxy-ethyl)-amino]-methyl}-2-[methyl-(2-morpholin-4-yl-ethyl)-amino]-thiazol-4-yl}-phenoxy)-pentyloxy]-benzamidine], the inhibition at 1 µM in series [1] worked out at 93%. Also, the Cell survival rate was determined as 105% in the series with MC3T3-E1, 103% in the series with calvaria and 107% with HOS.

Take `COCCNCc1sc(N(C)CCN2CCOCC2)nc1-c1ccc(OCCCCCOc2ccc(C(=N)NO)cc2)cc1` [Example 33, N-hydroxy-4-[5-(4-{5-[(2-methoxy-ethylamino)-methyl]-2-[methyl-(2-morpholin-4-yl-ethyl)-amino]-thiazol-4-yl}-phenoxy)-pentyloxy]-benzamidine]: the inhibition at 1 µM in series [1] amounted to 100%. Moreover, the Cell survival rate in the series on MC3T3-E1 was 104%; in the series with calvaria, 94%; in the series with HOS it was 110%.

Consider `Cc1nc(-c2ccc(OCCCCCOc3ccc(C(=N)NO)cc3)cc2)c(CNC(C)(C)C)s1` [Example 15, N-hydroxy-4-(5-{4-[5-(tert-butylamino-methyl)-2-methyl-thiazol-4-yl]-phenoxy}-pentyloxy)-benzamidine], for which the inhibition at 1 µM in series [1] is 100%. The values for the Cell survival rate in the series with MC3T3-E1, with calvaria and in the series on HOS were 99%, 105% and 98%, respectively.

As for `CCN(C)c1nc(-c2ccc(OCCCCCOc3ccc(C(=N)NO)cc3)cc2)c(CN2CCOCC2)s1` [Example 26, N-hydroxy-4-(5-{4-[2-(ethyl-methyl-amino)-5-morpholin-4-ylmethyl-thiazol-4-yl]-phenoxy}-pentyloxy)-benzamidine], the inhibition at 1 µM in series [1] (setting [2]) worked out at 98%. Also, the Cell survival rate came to 98% in the series with MC3T3-E1, 107% in the series on calvaria and 102% with HOS.

As for `N=C(NO)c1ccc(OCCCCCOc2ccc(-c3nc(-c4ccccc4)sc3N)cc2)cc1` [Example 45, N-hydroxy-4-{5-[4-(5-amino-2-phenyl-thiazol-4-yl)-phenoxy]-pentyloxy}-benzamidine], in series [1] (setting [2]), the inhibition at 1 µM amounted to 91%. For the same compound, the Cell survival rate is reported as 81% in the series on MC3T3-E1, 83% with calvaria and 104% with HOS.

Turning to `Cc1nc(-c2ccc(OCCCCCOc3ccc(C(=N)NO)cc3)cc2)c(CN(C)C)s1` [Example 12, N-hydroxy-4-{5-[4-(5-dimethylaminomethyl-2-methyl-thiazol-4-yl)-phenoxy]-pentyloxy}-benzamidine], in series [1], the inhibition at 1 µM is 64.9%. The values for the Cell survival rate in the series on MC3T3-E1, with calvaria and in the series with HOS were 98.8%, 95.6% and 107.5%, respectively.

As to `Cc1nc(-c2ccc(OCCCCCOc3ccc(C(=N)NO)cc3)cc2)c(CNCC(C)C)s1` [Example 14, N-hydroxy-4-(5-{4-[5-(isobutylamino-methyl)-2-methyl-thiazol-4-yl]-phenoxy}-pentyloxy)-benzamidine], the inhibition at 1 µM in series [1] was 100%. Further, the results for the Cell survival rate with MC3T3-E1, in the series on calvaria and with HOS were 98%, 103% and 111%, respectively.

For the compound `CN1CCN(Cc2sc(N(C)CCN3CCOCC3)nc2-c2ccc(OCCCCCOc3ccc(C(=N)NO)cc3)cc2)CC1` [Example 31, N-hydroxy-4-(5-{4-[2-[methyl-(2-morpholin-4-yl-ethyl)-amino]-5-(4-methyl-piperazin-1-ylmethyl)-thiazol-4-yl]-phenoxy}-pentyloxy)-benzamidine], the inhibition at 1 µM in series [1] (setting [2]) is 88%. The Cell survival rate is listed as 110% with MC3T3-E1, 102% in the series on calvaria and 101% with HOS.

As for `Cc1nc(-c2ccc(OCCCCCOc3ccc(C(=N)NO)cc3)cc2)c(-n2cncn2)s1` [Example 44, N-hydroxy-4-{5-[4-(2-methyl-5-[1,2,4]triazol-1-yl-thiazol-4-yl)-phenoxy]-pentyloxy}-benzamidine], the inhibition at 1 µM in series [1] (setting [2]) is 68%.
